The results in this text go back to ChEMBL document CHEMBL1153692, “Inactivation of HIV-1 protease by a tripeptidyl epoxide” (Bioorg Med Chem Lett, 1992).

Assay [1] concerns the target Human immunodeficiency virus type 1 protease (Human immunodeficiency virus 1) (UniProt Q72874). As to the kind of experiment: Half maximal inactivation rate of compound on HIV protease.
Assay [2] has the same target. As to the kind of experiment: Maximal inactivation rate of compound on HIV protease.
For assay [3] the target is unchanged. Kind of assay: Concentration of compound for half maximal inactivation rate on protease of Human immunodeficiency virus-1 (HIV-I) was determined.
Assay [4] shares this target. As to the kind of experiment: Maximal inactivation rate of compound on protease of Human immunodeficiency virus-1 (HIV-I) was determined.

Consider `O=[N+]([O-])c1ccc(OCC2CO2)cc1` (centres undefined), for which the K in assay [1] worked out at 11 mM; in assay [2], 0.004 min⁻¹.

As for `CC(C)C[C@@H]1O[C@@H]1[C@H](Cc1ccccc1)NC(=O)C(C)NC(Cc1ccccc1)C(=O)C(=O)OCc1ccccc1` (some centres undefined), the K in assay [3] turned out to be 20 µM; in assay [4], 0.31 min⁻¹.
